Results as given in patent US20200147060A1, “COMPOSITIONS AND METHODS OF TREATING CANCER” (UNIVERSITY OF IOWA RESEARCH FOUNDATION, priority 2018, published 2020).
“Also recorded” adds a separate entry of the source. Where two headings read alike, the source gives them in different places.

Key:
A375 melanoma cells = test: Clonogenic survival assay; format: cell-based, human; conditions: for development / acquisition of resistance to MAPKi (clonogenic survival): secondary agent combined with MAPKih (Vem 5 μM; Cobi 0.1 μM), PBA 2 mM, HCQ 12 μM
Experimental: To determine if the observed MAPKi-induced GSH imbalance plays a causal role in development of resistance, clonogenic survival assays were conducted in which cells were treated with GSH-synthesis inhibitor buthionine sulfoximine (BSO) (0.5 mM) with and without Vem. BSO depletes cellular GSH by inhibiting GSH synthesis via competitive inhibition of gamma-glutamylcysteine synthetase.

[1] = system: MAPKi-resistant 451LuBR melanoma xenografts; test: 451LuBR (BRAFi resistant melanoma) xenograft mouse model; format: in vivo, mice
Experimental: FIGS. 5A-5F. Pharmacologically Inhibiting Autophagy and ER-stress Simultaneously in Combination with MAPKih Improve Overall Survival in Vivo. Simultaneous inhibition of autophagy and ER-stress with MAPKih (Vem and Vem+Cobi) improves outcome in melanoma tumor bearing mice. (A-D) Simultaneous inhibition of ER-stress using PBA (250 mg kg^−1 twice a day) and autophagic flux using (HCQ 10 mg kg^−1 twice a day) with MAPKih (Vem 16 mg kg^−1 twice a day; Cobi 1 mg kg^−1 once a day) improves outcome in mice bearing MAPKi-sensitive A375 melanoma xenografts (N=13). (A) estimated tumor growth curves in response to PBA and HCQ with Vem; (B) estimated tumor growth curves in response to PBA and HCQ with Vem+Cobi; (C) overall survival in response to PBA and HCQ with Vem; (D) overall survival in response to PBA and HCQ with Vem+Cobi. (E, F) Simultaneous inhibition of ER-stress using PBA (250 mg kg^−1 twice a day) and autophagic flux using (HCQ 6.6 mg kg^−1 twice a day) with MAPKih (Vem 10 mg kg^−1 twice a day) improves outcome in mice bearing MAPKi-resistant 451LuBR melanoma xenografts (N=10); (E) estimated tumor growth curves in response to PBA and HCQ with Vem; and (F) overall survival in response to PBA and HCQ with Vem.
The potential for simultaneous inhibition of ER-stress and autophagy in overcoming resistance to MAPKih was further explored using a 451LuBR (BRAFi resistant melanoma) cell-line xenograft mouse model treated in the same way. Predictably, administering Vem alone had no effect of tumor growth and overall survival, establishing that these tumors are resistant to BRAFi.

[2] = cited from earlier work; for tolerability in patients: reported clinical trials
A375-CG-LC3B cells = test: Autophagic flux (mCherry:EGFP ratio) by flow cytometry; format: cell-based, human
Source text: (§1) UPR responses signal the activation of cytoprotective pathways such as autophagy. The role of GSH in mediating the acquisition of resistance was further explored by examining autophagy and autophagic flux responses to MAPKi in A375 metastatic melanoma cells.
Briefly, A375-CG-LC3B cells were obtained using a retroviral vector containing a coding sequence for a mCherry-EGFP-LC3B tandem protein (pBABE-puro mCherry-EGFP-LC3B, #22418, Addgene). The retrovirus was packaged in GP2-293 cells by co-transfection of 1 μg of viral DNA constructs and 1 μg of envelope plasmid (pVSV-G) in 20 μL PolyFect transfection reagent (Qiagen) for 48 hours at 37° C., 5% CO2. Virus-rich media was collected, aliquoted, and stored at −80° C. Cells were infected using the virus-rich media in DMEM (high glucose) for 12 h followed by incubation in complete media (high-glucose DMEM with 10% FBS) for 24 h. […] Autophagy was quantified as autophagic flux (Af) using A375-CG-LC3B cells.
Where Fmcherry is mcherry fluorescence measured using the 532 nm laser and FGFP is GFP fluorescence measured using the 488 nm laser on LSR II. […] Samples were analyzed on an LSR II flow cytometer (BD). Af was calculated for live, non-apoptotic (Hoechst negative, Annexin V negative) population using the derived parameter function in Flow Jo software (V10.4). […]

[3] = system: A375 metastatic melanoma cells; test: Autophagosome area fraction (TEM) and LC3B-II expression; format: cell-based, human
Source text: as §1

[4] = system: A375 BRAFV600E mutant melanoma cells; test: DHE oxidation (cellular redox state) by fluorescence intensity; format: cell-based, human; conditions: Vem 5 μM; subsided with acquisition of resistance
Source text: (§2) Initial response rates to MAPKih (BRAFih and BRAFih+MEKih) are often significant (and sometimes remarkable), but melanoma almost invariably (within months) develops resistance to these treatments. It has been further documented that continuous MAPKi brings about changes in cellular metabolism accompanied with a shift in metabolism from glycolysis to oxidative phosphorylation in vitro. Changes were examined in metabolism and oxidative state of A375 BRAFV600E mutant melanoma cells from initiation of BRAFih (Vem, 5 μM) through the acquisition of resistance (approximately 30 days). […] Changes in cellular metabolism coincided with a nearly identical pattern in the cellular redox state of the cell when quantified by the method of DHE oxidation by fluorescence intensity. […] Considering the critical relationship between cellular responses to oxidative stress and the glutathione cellular redox buffer, the changes in glutathione (GSH) levels and the ratio of GSH to the oxidized form (GSH:GSSG) with prolonged MAPKi in the A375 cells treated with Vem (5 μM) were evaluated over the same time period (FIG. 1D).

[5] = system: A375 BRAFV600E mutant melanoma cells; test: Oxygen consumption / extracellular acidification (Seahorse metabolic profiling); format: cell-based, human; conditions: Vem 5 μM continuous; plateaued within approximately 2 weeks
Experimental: (A) The ratio of basal metabolic oxygen consumption (BMOC)/extracellular acidification rate (ECAR) in response to continuous exposure to 5 μM Vem (N=6) as determined by Seahorse metabolic profiling; (B) Measurement of cellular pro-oxidant levels as determined by dyhdroethidium (DHE) oxidation in response to 5 μM Vem (N=3); (C) GSSG:GSH in response to Vem (N=2); (D) total cellular GSH in response to Vem (N=2).

[6] = system: A375 BRAFV600E mutant melanoma cells; test: Glutathione (GSH, GSSG) levels in cells under prolonged MAPKi; format: cell-based, human
Source text: as §2

[7] = system: MAPKi-sensitive A375 melanoma xenografts; test: A375 xenograft bearing mice treated with MAPKih with or without PBA and HCQ; format: in vivo; conditions: Vem 16 mg/kg twice a day, Cobi 1 mg/kg once a day, PBA 250 mg/kg twice a day i.p., HCQ 10 mg/kg twice a day
Experimental: To further explore the potential of simultaneous pharmacological inhibition of ER-stress and autophagy in preventing resistance to MAPKih, A375 xenograft bearing mice (FIGS. 5A-D) were treated with MAPKih or MAPKih in combination with PBA (250 mg kg-1 per dose, twice a day, i.p.) and HCQ (10 mg kg-1 per dose, twice per day, oral gavage). […] The experimental groups included MAPKi by Vem (BRAFih) (16 mg kg-1 per dose, twice a day, oral gavage) alone and in combination with Cobi (MAPKih) (1 mg kg-1 per dose, once a day, oral gavage).

A375 cells = test: Expression of ER-stress/UPR markers (GRP78/BiP, eIF2α); format: cell-based, human
Experimental: The GSH/GSSG ratio is known to be a fundamental buffering parameter of the ER, and ER-stress responses have been implicated in the initiation of autophagy and acquisition of resistance to MAPKih. Thus, the impact of MAPKi-induced GSH imbalance on the expression of ER-stress response proteins was assessed. Changes in UPR markers GRP78 (BiP) and eI2Fa (phospho-eI2Fa to inactivated eI2Fa) were determined by western blot in A375 cells treated with Vem alone and in combination with Cobi (FIGS. 2A-C). […] To explore the role of MAPKi-induced GSH imbalance on activation of UPR, similar time-course experiments were performed to monitor the expression of UPR markers with continuous MAPKi with and without GSH depletion (using BSO). Depletion of the GSH pool using BSO in this way rendered the cells incapable of initiating the ER-stress response and no increase in the expression of GRP78 was seen when A375 cells were treated continuously with Vemurafenib in the presence of BSO (FIG. 2D).

metastatic melanoma = conditions: cited from earlier work; for progression-free survival (time tumor progression is slowed): melanoma patients, average
451 Lu melanoma cells = test: Clonogenic survival assay; format: cell-based; conditions: ME added to the combination of vem and BSO
Experimental: FIGS. 7A-7L. Reduced Thiols Play a Vital Role in Development of Resistance to MAPKi. (A-E) Reduced thiols play a vital role in development of resistance to MAPKi in vitro. Changes in (A) cellular concentration of reduced glutathione (GSH, nmoles/mg protein) (B) cellular concentration of oxidized glutathione (GSSG, nmoles/mg protein) of A375 melanoma cells when treated with buthionine sulfoximine (BSO, 0.5 mM) and 2-mercaptoethanol (ME, 150 μM) in presence of vemurafenib (Vem, 5 μM) (N=3). Difference in clonogenic survival of A375 (N=2, n=3) and 451 Lu (N=1, n=3) melanoma cells when treated with vem alone compared to (C) vem in combination with ME and (D) vem in combination with BSO. (E) Addition of ME to the combination of vem and BSO rescues clonogenic survival in A375 and 451 Lu melanoma cells. […] Spider plots show individual tumor growth rates in A375 tumor bearing mice (N=8) when (F) untreated; (G) treated with BSO (15 mM in drinking water); (H) treated with AIN-76A rodent diet mixed with vemurafenib (PLX4720); (I) combination of AIN-76A rodent diet mixed with vemurafenib (PLX4720) with BSO. (J) Levels of total cellular GSH in tumor tissue obtained from untreated mice and mice treated with BSO. (K) Progression Free Survival (PFS) and (L) Overall survival (OS). ±SEM; *p=0.01 to 0.05, **p=0.001 to 0.01 ****P<0.0001.

[8] = Vem 10 mg/kg, PBA 250 mg/kg, HCQ 6.6 mg/kg, each twice a day, compared to control
[9] = A375 cells, prolonged MAPKi (Vem 5 μM)

CCN(CCO)CCCC(C)Nc1ccnc2cc(Cl)ccc12 (stereo not shown) [HCQ, Hydroxychloroquine]
development / acquisition of resistance to MAPKi (clonogenic survival) (A375 melanoma cells; BSO 0.5 mM): prevented resistance
median / overall survival [1, 8]: significantly enhanced
complete response (complete remissions) ([1]; share of mice): 20%
tolerability in patients [2]: well tolerated
autophagic flux induced by MAPKi (A375-CG-LC3B cells; secondary agent (BSO 0.5 mM, PBA 2 mM, HCQ 12 μM) added to MAPKih, versus MAPKih alone): decreased

CCCS(=O)(=O)Nc1ccc(F)c(C(=O)c2c[nH]c3ncc(-c4ccc(Cl)cc4)cc23)c1F [Vem, Vemurafenib]
area fraction of cells covered by autophagosomes (TEM) ([3]; Vem 5 μM): significant increase
expression of autophagic flux marker LC3B-II ([3]; continuous MAPKi by Vem): significant increases
oxidation of DHE [4]: initial increase
ratio of oxygen consumption linked to basal mitochondrial respiration (OCR) and extracellular acidification rate (ECAR) [5]: initial increase
median / overall survival [1, 8]: no effect
tumor growth rate [1, 8]: no effect
total GSH concentration after adaptation ([6]; >170 d Vem treatment, versus untreated control cells): re-equilibrated to levels comparable to untreated control cells
depletion of glutathione (GSH) [6, 9]: 68%
increase in oxidized glutathione (GSSG) [6, 9]: 30 fold
autophagic flux (A375-CG-LC3B cells; continuous MAPKi (Vem 5 μM; Cobi 0.1 μM) versus untreated cells): increased
rate of tumor growth [7]: similar
expression of ER-stress markers (A375 cells; continuous MAPKi, later decrease to pre-treatment levels): gradual increase
progression-free survival (time tumor progression is slowed) (metastatic melanoma; listed as Vemurafenib): about 7.2 months
progression-free survival (time tumor progression is slowed) (metastatic melanoma; listed as vemurafenib): 7.2 months

O=C(O)CCCc1ccccc1 [PBA, phenylbutyric acid]
tolerated dose ([2]; patients suffering from urea cycle disorders): up to 27 g per day
tolerability in patients [2]: safely administered

CCCCS(=N)(=O)CCC(N)C(=O)O [BSO, L-buthionine-[S,R]-sulfoximine]
clonogenic survival (A375 melanoma cells; BSO 0.5 mM alone, without MAPKih): did not affect
development / acquisition of resistance to MAPKi (clonogenic survival) (A375 melanoma cells; BSO 0.5 mM): completely inhibits acquisition of resistance; also recorded: prevents acquisition of resistance
tolerability in patients [2]: well-tolerated
expression of GRP78 (BiP) (A375 cells; continuous Vem in the presence of BSO 0.5 mM): diminished

CC(C)(C)c1nc(-c2cccc(NS(=O)(=O)c3c(F)cccc3F)c2F)c(-c2ccnc(N)n2)s1 [dabrafenib, Dabrafenib]
time until resistance occurs (metastatic melanoma; clinical trial data): 6 to 7 months

OCCS [ME, 2-mercaptoethanol]
clonogenic survival on addition of ME to vem and BSO (A375 melanoma cells; ME 150 μM, BSO 0.5 mM, Vem 5 μM): reversed; also recorded: rescues
clonogenic survival on addition of ME to vem and BSO (451 Lu melanoma cells): rescues
